Data on ten compounds can be found in patent US11986471B2, “Compounds and methods of use” (Tango Therapeutics, Inc., priority 2018, dated 2024).

A value given as a limit tells only on which side of the number the result lay.

The target in assay [1] is T1, PRMT5 (Homo sapiens, UniProt O14744).
T1 construct: purchased Viva (custom protein)
In words: PRMT5 IC50 assay with no cofactor. Format: biochemical. The gist of the method: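 Ki conversion: SAM arm, Ki=IC50/1.5; MTA arm, Ki=IC50/13.5. No-cofactor arm reported as IC50 only. Selectivity expressed as Ki(SAM)/Ki(MTA).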

In assay [2] the target is T1, PRMT5. The experiment in a line: PRMT5 IC50 assay in the presence of MTA as cofactor. It is filed as biochemical. Particulars: for IC50: PRMT5, MTA as cofactor; for SAM/MTA Ratio: ratio between the Ki in the presence of SAM and the Ki in the presence of MTA. The gist of the method: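 Potency against PRMT5 is compared across cofactor states, where IC50 equals Ki×1.5 with SAM present and Ki×13.5 with MTA present.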

For assay [3], the target named is T1, PRMT5. The experiment in a line: PRMT5 IC50 assay in the presence of SAM as cofactor. It is filed as biochemical. The gist of the method:
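Enzyme: human PRMT5. Conditions: plus SAM, plus MTA, or cofactor-free. Output: IC50 (μM); Ki via IC50/1.5 (SAM) or IC50/13.5 (MTA).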

The test system of assay [4] is HAP1 MTAP-deleted. The experiment in a line: SDMA in-cell western assay, HAP1 MTAP-deleted cell line. Format: cell-based. The conditions noted are these: for IC50: Homo sapiens, HAP1 MTAP-deleted cell line; for MTAP Intact/Deleted Ratio: IC50 ratio HAP1 MTAP-intact / HAP1 MTAP-deleted. The gist of the method:
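Readout is cellular SDMA signal by in-cell western, with IC50 values derived from it. The cells are MTAP-null HAP1, matched to an isogenic MTAP-intact HAP1 line.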

The test system of assay [5] is HAP1 MTAP-intact. In words: SDMA in-cell western assay, HAP1 MTAP-intact cell line. Format: cell-based. The conditions noted are these: Homo sapiens. The gist of the method: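 IC50 values come from SDMA in-cell western staining of HAP1 cells. The MTAP-intact line carries endogenous MTAP, while its MTAP-deleted counterpart lacks MTAP entirely. A selectivity ratio of at least 3 fold marks a compound as MTAP-selective.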

T1 sequence (O14744 whole entry): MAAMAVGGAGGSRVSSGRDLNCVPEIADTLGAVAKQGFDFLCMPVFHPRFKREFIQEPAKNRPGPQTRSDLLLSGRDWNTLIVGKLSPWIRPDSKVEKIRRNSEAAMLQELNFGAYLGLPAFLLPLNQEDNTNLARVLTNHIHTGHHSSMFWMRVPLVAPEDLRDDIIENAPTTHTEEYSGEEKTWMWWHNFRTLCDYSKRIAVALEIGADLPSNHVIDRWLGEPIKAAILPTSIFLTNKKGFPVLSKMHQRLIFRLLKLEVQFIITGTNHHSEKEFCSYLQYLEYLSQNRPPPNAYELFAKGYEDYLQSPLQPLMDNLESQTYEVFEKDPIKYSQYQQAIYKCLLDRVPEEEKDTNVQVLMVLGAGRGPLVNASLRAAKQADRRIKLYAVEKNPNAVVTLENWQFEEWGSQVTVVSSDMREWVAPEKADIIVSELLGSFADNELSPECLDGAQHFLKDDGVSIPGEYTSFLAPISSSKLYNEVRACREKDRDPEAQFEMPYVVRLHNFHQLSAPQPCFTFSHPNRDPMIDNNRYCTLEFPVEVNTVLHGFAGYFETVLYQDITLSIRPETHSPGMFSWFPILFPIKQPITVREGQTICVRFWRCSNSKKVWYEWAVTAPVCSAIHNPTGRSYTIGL
T1 sequence (Q9BQA1 whole entry partner): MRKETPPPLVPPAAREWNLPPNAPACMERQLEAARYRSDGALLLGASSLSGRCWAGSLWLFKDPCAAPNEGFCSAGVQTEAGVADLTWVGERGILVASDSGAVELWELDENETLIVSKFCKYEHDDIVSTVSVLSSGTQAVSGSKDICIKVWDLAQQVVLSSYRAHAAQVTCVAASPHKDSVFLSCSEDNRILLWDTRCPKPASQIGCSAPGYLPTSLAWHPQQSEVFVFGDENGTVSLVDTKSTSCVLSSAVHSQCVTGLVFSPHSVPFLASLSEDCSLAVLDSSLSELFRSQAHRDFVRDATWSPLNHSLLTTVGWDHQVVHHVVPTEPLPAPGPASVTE

As for `Cc1ncoc1COc1ccc2c(c1)CCN(C[C@@H](O)CNC(=O)c1cc(NC3CCC3)nc(N3CCN(C(=O)C4CC4)CC3)c1)C2` [Compound 455, 2-(cyclobutylamino)-6-(4-cvclopropanecarbonylpiperazin-1-yl)-N-[(2S)-2-hydroxy-3-{6-[(4-methyl-1,3-oxazol-5-yl)methoxy]-1,2,3,4-tetrahydroisoquinolin-2-yl}propyl]pyridine-4-carboxamide], the IC50 in assay [1] is 50 to 500 nM; in assay [2], 50 to 500 nM; in assay [3], 50 to 500 nM; in assay [4], below 1000 nM; in assay [5], below 1 µM. The “SAM/MTA Ratio” value in assay [2] is “A (a Ki ratio greater than or equal to 10 fold between the Ki in the presence of SAM and the Ki in the presence of MTA)”. In assay [4], the “MTAP Intact/Deleted Ratio” value is “B* (an IC50 ratio greater than or equal to 3 fold but lower than 10 fold between the IC50 in the HAP1 MTAP-intact cell line and the HAP1 MTAP-deleted cell line)”.

In the case of `Cc1ncoc1COc1ccc2c(c1C)CCN(C[C@@H](O)CNC(=O)c1cc(NC3COC3)nc(N3CCN(C)CC3)n1)C2` [Compound 456, N-[(2S)-2-hydroxy-3-{5-methyl-6-[(4-methyl-1,3-oxazol-5-yl)methoxy]-1,2,3,4-tetrahydroisoquinolin-2-yl}propyl]-2-(4-methylpiperazin-1-yl)-6-[(oxetan-3-yl)amino]pyrimidine-4-carboxamide], the IC50 in assay [1] is at least 5000 nM; in assay [2] it was 50 to 500 nM; in assay [3] it was 50 to 500 nM; in assay [4] it was 1000 to 10000 nM; in assay [5], at least 10 µM. Further, in assay [2], the “SAM/MTA Ratio” value was “A (a Ki ratio greater than or equal to 10 fold between the Ki in the presence of SAM and the Ki in the presence of MTA)”. In addition, the “MTAP Intact/Deleted Ratio” value in assay [4] is “C* (an IC50 ratio of less than 3 fold between the IC50 in the HAP1 MTAP-intact cell line and the HAP1 MTAP-deleted cell line)”.

Take `CCN(C)c1nc(NC2COC2)cc(C(=O)NC[C@H](O)CN2CCc3cc(OCc4ocnc4C)ccc3C2)n1` [Compound 457, 2-[ethyl(methyl)amino]-N-[(2S)-2-hydroxy-3-{6-[(4-methyl-1,3-oxazol-5-yl)methoxy]-1,2,3,4-tetrahydroisoquinolin-2-yl}propyl]-6-[(oxetan-3-yl)amino]pyrimidine-4-carboxamide]: the IC50 was 500 to 5000 nM in assay [1]; 50 to 500 nM in assay [2]; 50 to 500 nM in assay [3]; below 1000 nM in assay [4]; below 1 µM in assay [5]. The “SAM/MTA Ratio” value in assay [2] is “A (a Ki ratio greater than or equal to 10 fold between the Ki in the presence of SAM and the Ki in the presence of MTA)”. In addition, in assay [4], the “MTAP Intact/Deleted Ratio” value was “C* (an IC50 ratio of less than 3 fold between the IC50 in the HAP1 MTAP-intact cell line and the HAP1 MTAP-deleted cell line)”.

Take `CC(C)C(=O)N1CCC(Nc2cc(C(=O)NC[C@H](O)CN3CCc4cc(OCc5cnco5)ccc4C3)ccn2)CC1` [Compound 458, N-[(2S)-2-hydroxy-3-[6-(oxazol-5-ylmethoxy)-3,4-dihydro-1H-isoquinolin-2-yl]propyl]-2-[[1-(2-methylpropanoyl)-4-piperidyl]amino]pyridine-4-carboxamide]: the IC50 in assay [1] was 500 to 5000 nM; in assay [2] it was 50 to 500 nM; in assay [3] it was 50 to 500 nM; in assay [4], below 1000 nM; in assay [5], 1 to 10 µM. Further, in assay [2], the “SAM/MTA Ratio” value is “A (a Ki ratio greater than or equal to 10 fold between the Ki in the presence of SAM and the Ki in the presence of MTA)”. Besides, in assay [4], the “MTAP Intact/Deleted Ratio” value is “C* (an IC50 ratio of less than 3 fold between the IC50 in the HAP1 MTAP-intact cell line and the HAP1 MTAP-deleted cell line)”.

Consider `Cc1ncoc1COc1ccc2c(c1C)CCN(C[C@@H](O)CNC(=O)c1cc(NC3CCC3)nc(N3CCN(C(=O)C(C)C)CC3)c1)C2` [Compound 459, 2-(cyclobutylamino)-N-[(2S)-2-hydroxy-3-{5-methyl-6-[(4-methyl-1,3-oxazol-5-yl)methoxy]-1,2,3,4-tetrahydroisoquinolin-2-yl}propyl]-6-[4-(2-methylpropanoyl)piperazin-1-yl]pyridine-4-carboxamide], for which the IC50 in assay [1] was 500 to 5000 nM; in assay [2], 50 to 500 nM; in assay [3], 50 to 500 nM; in assay [4], below 1000 nM; in assay [5] it was 1 to 10 µM. Further, the “SAM/MTA Ratio” value in assay [2] is “A (a Ki ratio greater than or equal to 10 fold between the Ki in the presence of SAM and the Ki in the presence of MTA)”. Moreover, the “MTAP Intact/Deleted Ratio” value in assay [4] is “A* (an IC50 ratio greater than or equal to 10 fold between the IC50 in the HAP1 MTAP-intact cell line and the HAP1 MTAP-deleted cell line)”.

For the compound `CCC(=O)N1CCC(Nc2cc(C(=O)NC[C@H](O)CN3CCc4cc(OCc5cnco5)ccc4C3)ccn2)CC1` [Compound 460, N-[(2S)-2-hydroxy-3-[6-(oxazol-5-ylmethoxy)-3,4-dihydro-1H-isoquinolin-2-yl]propyl]-2-[(1-propanoyl-4-piperidyl)amino]pyridine-4-carboxamide], the IC50 is 500 to 5000 nM in assay [1]; 50 to 500 nM in assay [2]; 50 to 500 nM in assay [3]; below 1000 nM in assay [4]; 1 to 10 µM in assay [5]. For the same compound, the “SAM/MTA Ratio” value in assay [2] was “A (a Ki ratio greater than or equal to 10 fold between the Ki in the presence of SAM and the Ki in the presence of MTA)”. The “MTAP Intact/Deleted Ratio” value in assay [4] is “B* (an IC50 ratio greater than or equal to 3 fold but lower than 10 fold between the IC50 in the HAP1 MTAP-intact cell line and the HAP1 MTAP-deleted cell line)”.

Consider `Cc1ncoc1COc1ccc2c(c1C)CCN(C[C@@H](O)CNC(=O)c1cc(NC3CCC3)nc(N3CCOCC3)c1)C2` [Compound 461, 2-(cyclobutylamino)-N-[(2S)-2-hydroxy-3-{5-methyl-6-[(4-methyl-1,3-oxazol-5-yl)methoxy]-1,2,3,4-tetrahydroisoquinolin-2-yl}propyl]-6-(morpholin-4-yl)pyridine-4-carboxamide], for which the IC50 in assay [1] was at least 5000 nM; in assay [2], 50 to 500 nM; in assay [3], 50 to 500 nM; in assay [4], 1000 to 10000 nM; in assay [5], at least 10 µM. In addition, the “MTAP Intact/Deleted Ratio” value in assay [4] is “B* (an IC50 ratio greater than or equal to 3 fold but lower than 10 fold between the IC50 in the HAP1 MTAP-intact cell line and the HAP1 MTAP-deleted cell line)”.

With `CC(C)N1CCN(c2cc(C(=O)NC[C@H](O)CN3CCc4cc(OCc5cnco5)ccc4C3)cc(NC3CCC3)n2)CC1` [Compound 462, (S)-2-(cyclobutylamino)-N-(2-hydroxy-3-(6-(oxazol-5-ylmethoxy)-3,4-dihydroisoquinolin-2(1H)-yl)propyl)-6-(4-isopropylpiperazin-1-yl)isonicotinamide], the IC50 is 500 to 5000 nM in assay [1]; 50 to 500 nM in assay [2]; 50 to 500 nM in assay [3]; at least 10000 nM in assay [4]; at least 10 µM in assay [5]. The “SAM/MTA Ratio” value in assay [2] is “A (a Ki ratio greater than or equal to 10 fold between the Ki in the presence of SAM and the Ki in the presence of MTA)”. The “MTAP Intact/Deleted Ratio” value in assay [4] was “C* (an IC50 ratio of less than 3 fold between the IC50 in the HAP1 MTAP-intact cell line and the HAP1 MTAP-deleted cell line)”.

For the compound `Cc1ncoc1COc1ccc2c(c1)CCN(C[C@@H](O)CNC(=O)c1cc(NC3CCC3)nc(N3CCN(C(=O)C(C)C)CC3)c1)C2` [Compound 463, 2-(cyclobutylamino)-N-[(2S)-2-hydroxy-3-{6-[(4-methyl-1,3-oxazol-5-yl)methoxy]-1,2,3,4-tetrahydroisoquinolin-2-yl}propyl]-6-[4-(2-methylpropanoyl)piperazin-1-yl]pyridine-4-carboxamide], the IC50 was 500 to 5000 nM in assay [1]; 50 to 500 nM in assay [2]; 50 to 500 nM in assay [3]; below 1000 nM in assay [4]; below 1 µM in assay [5]. Moreover, the “SAM/MTA Ratio” value in assay [2] is “A (a Ki ratio greater than or equal to 10 fold between the Ki in the presence of SAM and the Ki in the presence of MTA)”. Moreover, the “MTAP Intact/Deleted Ratio” value in assay [4] is “B* (an IC50 ratio greater than or equal to 3 fold but lower than 10 fold between the IC50 in the HAP1 MTAP-intact cell line and the HAP1 MTAP-deleted cell line)”.

Turning to `O=C(NC[C@H](O)CN1CCc2c(ccc(OCc3cnco3)c2Cl)C1)c1cc(NC2CCC2)nc(N2CCNCC2)c1` [Compound 464, (S)—N-(3-(5-chloro-6-(oxazol-5-ylmethoxy)-3,4-dihydroisoquinolin-2(1H)-yl)-2-hydroxypropyl)-2-(cyclobutylamino)-6-(piperazin-1-yl)isonicotinamide], the IC50 in assay [1] is 500 to 5000 nM; in assay [2], 50 to 500 nM; in assay [3] it was 50 to 500 nM; in assay [4], at least 10000 nM; in assay [5] it was at least 10 µM. The “SAM/MTA Ratio” value in assay [2] is “A (a Ki ratio greater than or equal to 10 fold between the Ki in the presence of SAM and the Ki in the presence of MTA)”. In addition, in assay [4], the “MTAP Intact/Deleted Ratio” value was “C* (an IC50 ratio of less than 3 fold between the IC50 in the HAP1 MTAP-intact cell line and the HAP1 MTAP-deleted cell line)”.

What is called IC50 is the midpoint of a concentration-inhibition curve.
